Measured values as given in patent US10894798B2, “Substituted dihydropyrrolopyrazole derivative” (UBE INDUSTRIES, LTD., priority 2015, dated 2021).

What was measured:
PLK1 = molecular target: T1, PLK1 (Homo sapiens, UniProt P53350); experiment: PLK1 enzyme (polo-like kinase) inhibition test; type: biochemical; conditions: [γ-33P]ATP, casein substrate; Ki=IC50/(1+S/Km); read-out: Ki value of PLK1 inhibitory activity
T1 construct: purchased Carna Biosciences, Inc. 05-157
Procedure: The preparation of a buffer solution was performed by mixing a 3-morpholinopropanesulfonic acid buffer solution (MOPS buffer solution) (pH 7.0), dithiothreitol (DTT), and magnesium acetate (Mg(CH3COO)2). A 1 mM [γ-^33P]ATP solution was used by diluting a 10 mM ATP solution and a commercially available [γ-^33P]ATP solution (manufactured by Perkin Elmer, Inc., Code No. NEG-302H) with the buffer solution. A PLK1 solution was used by diluting commercially available PLK1 (manufactured by Carna Biosciences, Inc., Catalog No. 05-157) with the buffer solution. A substrate solution was used by diluting casein with the buffer solution. As for the preparation of a reaction solution, the buffer solution, the 500 μM [γ-^33P]ATP solution, the PLK1 solution, and the substrate solution were mixed at 4° C. to obtain a reaction solution.
(§1) PLK1 enzyme reaction was performed by adding 5 μL of a test compound solution prepared with 10% DMSO/90% injectable distilled water, and 45 μL of the reaction solution in a 1.5 mL microtube at 4° C. and reacting in the microtube at 30° C. for 20 minutes in a water bath incubator. After the reaction, a 10% aqueous trichloroacetic acid (TCA) solution was added to each microtube while cooled to 4° C., and mixed in a vortex mixer to terminate the reaction. The resultant was left standing at 4° C. for 10 minutes and then centrifuged, and the supernatant was discarded. Next, a 2% aqueous trichloroacetic acid (TCA) solution was added thereto, mixed in a vortex mixer, and then centrifuged, and the supernatant was discarded. This washing operation was performed twice. After the washing, precipitates were dissolved in a 1 N aqueous sodium hydroxide (NaOH) solution, and the energy quantity (radioactivity) of the reaction product was measured with a liquid scintillation counter.
The calculation of the inhibitory activity of the test compound against PLK1 was performed as a test compound concentration inhibiting 50% of the amount of ^33P bound to casein (IC50 value) by using EXSUS (version 8.1.0, manufactured by CAC Exicare Corp.).
(§2) The calculation of a Ki value was performed according to the following calculation expression wherein S represents the concentration of ATP contained in the reaction solution, and Km represents a Michaelis-Menten constant: Ki=IC50/(1+S/Km)

CDK2 = molecular target: T2, CDK2 (Homo sapiens, UniProt P24941); experiment: CDK2 enzyme inhibition test; type: biochemical; conditions: [γ-33P]ATP, MBP substrate; Ki=IC50/(1+S/Km); read-out: Ki value of CDK2 inhibitory activity
T2 construct: purchased Invitrogen Corp. PV3267
Procedure: (§3) The preparation of a buffer solution was performed by mixing a N-2-hydroxyethylpiperazine-N′-2-ethanesulfonic acid buffer solution (HEPES buffer solution) (pH 7.4), dithiothreitol (DTT), Triton X-100, and magnesium chloride (MgCl2). A 500 μM [γ-^33P]ATP solution was used by diluting a 10 mM ATP solution and a commercially available [γ-^33P]ATP solution (manufactured by Perkin Elmer, Inc., Code No. NEG-302H) with the buffer solution. A CDK2 solution was used by diluting commercially available CDK2 (manufactured by Invitrogen Corp., Catalog No. PV3267) with the buffer solution. A substrate solution was used by diluting myelin basic protein (MBP) with the buffer solution. As for the preparation of a reaction solution, the buffer solution, the 500 μM [γ-^33P]ATP solution, the CDK2 solution, and the substrate solution were mixed at 4° C. to obtain a reaction solution.
as §1, with “CDK2 enzyme reaction” for “PLK1 enzyme reaction”, “mixed in vortex mixer,” for “mixed in a vortex mixer,”
The calculation of the inhibitory activity of the test compound against CDK2 was performed as a test compound concentration inhibiting 50% of the amount of ^33P bound to MBP (IC50 value) by using EXSUS (version 8.1.0, manufactured by CAC Exicare Corp.).
as §2

[1] = system: human large intestine cancer cell line (HCT-116); experiment: Human large intestine cancer (HCT-116) cell growth inhibition test; type: cell-based; conditions: HCT-116, 72 h, culture for 3 days, sulforhodamine B, read-out: GI50 value, HCT-116 cell growth inhibition
Procedure: The measurement of a human large intestine cancer cell growth inhibitory effect was carried out by modifying the method of Simak et al. (Cancer Research, 69, 6208 (2009)).
A human large intestine cancer cell line (HCT-116, obtained from DS Pharma Biomedical Co., Ltd.) was cultured in a McCoy's 5A medium (manufactured by Thermo Fisher Scientific, Inc.) containing 10% fetal bovine serum (FBS) (manufactured by Thermo Fisher Scientific, Inc.) and 1% penicillin/streptomycin/amphotericin B (manufactured by Thermo Fisher Scientific, Inc.) and inoculated at 0.5 to 2.0×10^3 cells/well in a 96-well plate. After overnight culture in a carbon dioxide incubator, the medium was replaced with a fresh medium on the next day, and a test compound dissolved in DMSO (final DMSO concentration: 0.1%) was added thereto and left standing in a carbon dioxide incubator. After culture for 3 days, the absorbance thereof was measured by using In Vitro Toxicology Assay Kit Sulforhodamine B based (manufactured by Sigma-Aldrich Co. LLC.).
The rate of inhibition of cell growth at each concentration was calculated from the test compound concentration and the absorbance of sulforhodamine B, and the concentration of the test compound necessary for inhibiting 50% of cell growth (GI50 value) was calculated by using EXSUS (version 8.1.0, manufactured by CAC Exicare Corp.).

CDK7 = molecular target: T3, CDK7 (Homo sapiens, UniProt P50613); experiment: CDK7 enzyme inhibition test; type: biochemical; conditions: [γ-33P]ATP, MBP substrate, 60 min preincubation at 25°C; Ki=IC50/(1+S/Km); read-out: Ki value of CDK7 inhibitory activity
T3 construct: purchased Carna Biosciences, Inc. 04-108
T3 sequence (P50613 whole entry): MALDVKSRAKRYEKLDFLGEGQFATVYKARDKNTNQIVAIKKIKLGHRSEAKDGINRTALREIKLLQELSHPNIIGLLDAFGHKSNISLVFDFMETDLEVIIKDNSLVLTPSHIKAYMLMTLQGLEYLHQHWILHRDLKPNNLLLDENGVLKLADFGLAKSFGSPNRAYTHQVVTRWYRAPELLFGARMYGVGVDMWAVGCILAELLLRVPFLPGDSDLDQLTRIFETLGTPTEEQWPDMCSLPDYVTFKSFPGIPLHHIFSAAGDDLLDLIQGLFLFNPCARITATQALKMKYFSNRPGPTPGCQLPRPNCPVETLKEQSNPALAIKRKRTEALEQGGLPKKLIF
T3 sequence (P51946 whole entry partner): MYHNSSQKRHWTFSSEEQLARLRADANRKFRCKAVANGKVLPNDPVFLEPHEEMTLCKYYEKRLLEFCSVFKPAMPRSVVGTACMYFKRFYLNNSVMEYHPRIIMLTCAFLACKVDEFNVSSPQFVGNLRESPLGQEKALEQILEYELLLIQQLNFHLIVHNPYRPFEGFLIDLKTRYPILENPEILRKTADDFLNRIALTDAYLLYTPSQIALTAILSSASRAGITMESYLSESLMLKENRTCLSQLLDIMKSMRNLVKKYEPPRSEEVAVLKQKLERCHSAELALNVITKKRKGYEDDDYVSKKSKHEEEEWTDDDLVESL
T3 sequence (P51948 whole entry partner): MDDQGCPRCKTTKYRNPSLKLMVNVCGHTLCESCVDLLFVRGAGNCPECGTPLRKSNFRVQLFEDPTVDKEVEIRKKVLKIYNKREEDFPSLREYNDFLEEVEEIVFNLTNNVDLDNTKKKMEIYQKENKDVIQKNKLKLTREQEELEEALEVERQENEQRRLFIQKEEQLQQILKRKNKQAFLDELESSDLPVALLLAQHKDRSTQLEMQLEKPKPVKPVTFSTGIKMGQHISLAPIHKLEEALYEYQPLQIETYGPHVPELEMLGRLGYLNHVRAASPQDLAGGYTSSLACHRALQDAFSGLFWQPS
Procedure: as §3, with “PerkinElmer,” for “Perkin Elmer,”, “CDK7” for “CDK2”, “Carna Biosciences, Inc.,” for “Invitrogen Corp.,”, “04-108)” for “PV3267)”, “CDK7” for “500 μM [γ-^33P]ATP solution, the CDK2”
CDK7 enzyme reaction was performed by adding 5 μL of a test compound solution prepared with 10% DMSO/90% injectable distilled water, and 40 μL of the reaction solution to a 1.5 mL microtube at 4° C. and preincubating the microtube at 25° C. for 60 minutes in a water bath incubator. Subsequently, reaction was performed at 30° C. for 20 minutes by adding 5 μL of the 500 μM [γ-^33P]ATP solution. After the reaction, a 10% aqueous trichloroacetic acid (TCA) solution was added to each microtube while cooled to 4° C., and mixed in a vortex mixer to terminate the reaction. The resultant was left standing at 4° C. for 10 minutes and then centrifuged, and the supernatant was discarded. Next, a 2% aqueous trichloroacetic acid (TCA) solution was added thereto, mixed in a vortex mixer, and then centrifuged, and the supernatant was discarded. This washing operation was performed twice. After the washing, precipitates were dissolved in a 1 N aqueous sodium hydroxide (NaOH) solution, and the energy quantity (radioactivity) of the reaction product was measured with a liquid scintillation counter.
The calculation of the inhibitory activity of the test compound against CDK7 was performed as a test compound concentration inhibiting 50% of the amount of ^33P bound to MBP (IC50 value) by using EXSUS (version 8.1.0, manufactured by CAC Exicare Corp.).
as §2

T1 sequence (P53350 whole entry): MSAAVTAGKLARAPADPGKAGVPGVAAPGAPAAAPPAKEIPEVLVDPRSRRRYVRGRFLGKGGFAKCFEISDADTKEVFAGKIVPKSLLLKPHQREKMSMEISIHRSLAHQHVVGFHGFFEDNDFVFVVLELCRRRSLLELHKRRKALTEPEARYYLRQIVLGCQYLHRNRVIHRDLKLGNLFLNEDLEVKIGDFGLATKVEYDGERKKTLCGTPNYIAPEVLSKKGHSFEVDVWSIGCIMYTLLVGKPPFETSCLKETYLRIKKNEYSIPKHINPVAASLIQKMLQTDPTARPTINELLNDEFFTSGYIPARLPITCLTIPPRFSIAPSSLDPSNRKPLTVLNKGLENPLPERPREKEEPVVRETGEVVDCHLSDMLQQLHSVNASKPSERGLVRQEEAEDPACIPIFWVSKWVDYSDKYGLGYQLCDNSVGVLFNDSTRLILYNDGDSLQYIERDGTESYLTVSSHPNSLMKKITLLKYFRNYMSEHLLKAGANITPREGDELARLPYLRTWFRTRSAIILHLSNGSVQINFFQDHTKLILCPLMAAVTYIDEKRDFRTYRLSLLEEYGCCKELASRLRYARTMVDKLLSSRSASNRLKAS

| SMILES | Ki (PLK1) [nM] | Ki (CDK2) [nM] | GI50 [1] [nM] | Ki (CDK7) [nM] |
| --- | --- | --- | --- | --- |
| CC1(C)c2[nH]nc(NC(=O)C3([Si](C)(C)C)CCC3)c2CN1C(=O)N1CCc2ccccc21 [I-1000, N-[5-(Indoline-1-carbonyl)-6,6-dimethyl-1,4,5,6-tetrahydropyrrolo[3,4-c]pyrazol-3-yl]-1-(trimethylsilyl)cyclobutanecarboxamide] | ≥ 5000 | ≥ 1000 |  |  |
| CC1(C)c2[nH]nc(NC(=O)C3([Si](C)(C)C)CCC3)c2CN1C(=O)N1CCOc2ccccc21 [I-1036, N-[5-(3,4-Dihydro-2H-benz[b][1,4]oxazine-4-carbonyl)-6,6-dimethyl-1,4,5,6-tetrahydropyrrolo[3,4-c]pyrazol-3-yl]-1-(trimethylsilyl)cyclobutanecarboxamide] | ≥ 5000 | ≥ 1000 |  |  |
| CC1(C)c2[nH]nc(NC(=O)C3([Si](C)(C)C)CCC3)c2CN1C(=O)Nc1ccccc1Cl [IV-9, N-(2-Chlorophenyl)-6,6-dimethyl-3-[1-(trimethylsilyl)cyclobutanecarboxamido]-4,6-dihydropyrrolo[3,4-c]pyrazole-5(1H)-carboxamide] |  | ≥ 1000 | ≤ 100 | ≤ 50 |
| COc1ccccc1NC(=O)N1Cc2c(NC(=O)C3([Si](C)(C)C)CCC3)n[nH]c2C1(C)C [IV-75, N-(2-Methoxyphenyl)-6,6-dimethyl-3-[1-(trimethylsilyl)cyclobutanecarboxamido]-4,6-dihydropyrrolo[3,4-c]pyrazole-5(1H)-carboxamide] |  | ≥ 1000 | ≤ 100 | ≤ 50 |
| CC1(C)c2[nH]nc(NC(=O)C3([Si](C)(C)C)CCC3)c2CN1C(=O)Nc1cc(F)ccc1F [IV-103, N-(2,5-Difluorophenyl)-6,6-dimethyl-3-[1-(trimethylsilyl)cyclobutanecarboxamido]-4,6-dihydropyrrolo[3,4-c]pyrazole-5(1H)-carboxamide] |  |  | ≤ 100 | ≤ 50 |
| Cc1cccc(NC(=O)N2Cc3c(NC(=O)C4([Si](C)(C)C)CCC4)n[nH]c3C2(C)C)c1C [IV-375, N-(2,3-Dimethylphenyl)-6,6-dimethyl-3-[1-(trimethylsilyl)cyclobutanecarboxamido]-4,6-dihydropyrrolo[3,4-c]pyrazole-5(1H)-carboxamide] |  |  | ≤ 100 | ≤ 50 |

Now from value to compound:

| Ki (PLK1) [nM] | Ki (CDK2) [nM] | GI50 [1] [nM] | Ki (CDK7) [nM] | SMILES |
| --- | --- | --- | --- | --- |
|  |  | ≤ 100 | ≤ 50 | CC1(C)c2[nH]nc(NC(=O)C3([Si](C)(C)C)CCC3)c2CN1C(=O)Nc1cc(Cl)ccc1F [IV-111, N-(5-Chloro-2-fluorophenyl)-6,6-dimethyl-3-[1-(trimethylsilyl)cyclobutanecarboxamido]-4,6-dihydropyrrolo[3,4-c]pyrazole-5 (1H)-carboxamide] |
|  |  | ≤ 100 | ≤ 50 | Cc1ccc(NC(=O)N2Cc3c(NC(=O)C4([Si](C)(C)C)CCC4)n[nH]c3C2(C)C)c(F)c1 [IV-125, N-(2-Fluoro-4-methylphenyl)-6,6-dimethyl-3-[1-(trimethylsilyl)cyclobutanecarboxamido]-4,6-dihydropyrrolo[3,4-c]pyrazole-5 (1H)-carboxamide] |
| ≥ 5000 |  | ≤ 100 | ≤ 50 | CC1(C)c2[nH]nc(NC(=O)C3([Si](C)(C)C)CCC3)c2CN1C(=O)Nc1c(F)cccc1C(F)(F)F [IV-153, N-[2-Fluoro-6-(trifluoromethyl)phenyl]-6,6-dimethyl-3-[1-(trimethylsilyl)cyclobutanecarboxamido]-4,6-dihydropyrrolo[3,4-c]pyrazole-5(1H)-carboxamide] |
|  |  | ≤ 100 | ≤ 50 | CC1(C)c2[nH]nc(NC(=O)C3([Si](C)(C)C)CCC3)c2CN1C(=O)Nc1c(F)cc(F)cc1F [IV-599, 6,6-Dimethyl-N-(2,4,6-trifluorophenyl)-3-[1-(trimethylsilyl)cyclobutanecarboxamido]-4,6-dihydropyrrolo[3,4-c]pyrazole-5(1H)-carboxamide] |
|  |  | ≤ 100 | ≤ 50 | Cc1nscc1NC(=O)N1Cc2c(NC(=O)C3([Si](C)(C)C)CCC3)n[nH]c2C1(C)C [IV-1035, 6,6-Dimethyl-N-(3-methylisothiazol-4-yl)-3-[1-(trimethylsilyl)cyclobutanecarboxamido]-4,6-dihydropyrrolo[3,4-c]pyrazole-5 (1H)-carboxamide] |
